Literature values in patent US20080103103A1, “Reagents and methods to treat ocular diseases and infection” (priority 2006, published 2008).

How the values were obtained:
HSV = HSV early onset
adenovirus [1] = test system: adenovirus
adenovirus [2] = test system: adenovirus; remark: listed apart in the source
adenovirus [3] = details: 0.2%
adenovirus [4] = details: 0.5%
adenovirus [5] = details: 3%, ocular application

Nc1nc2c(ncn2COCCO)c(=O)[nH]1 [Acyclovir]
effectiveness against HSV (HSV): effective | effectiveness against adenovirus (adenovirus [1]): not adenovirus

O=C(O[C@@H]1Cc2c(O)cc(O)cc2O[C@@H]1c1cc(O)c(O)c(O)c1)c1cc(O)c(O)c(O)c1 [EGCG, (2R,3R)-2-(3,4,5-Trihydroxyphenyl)-3,4-dihydro-1(2H)-benzopyran-3,5,7-triol 3-(3,4,5-trihydroxybenzoate)]
activity against adenovirus in vitro (viral load) (adenovirus [2]; in vitro): greatly reducing the viral load | concentration effective for in vitro cultures (adenovirus [2]; in vitro cultures, adenovirus): 0.005%

Nc1ccn(C[C@@H](CO)OCP(=O)(O)O)c(=O)n1 [cidofovir]
result in clinical trials (adenovirus [3]): failed | result in animal studies (adenovirus [4]): some positive results

CC(=O)OCC(CCn1cnc2cnc(N)nc21)COC(C)=O [famciclovir]
effectiveness against HSV (HSV): effective | effectiveness against adenovirus (adenovirus [1]): not adenovirus

Nc1nc(O)c2ncn(COC(CO)CO)c2n1 [gancicolovir]
activity against adenovirus (adenovirus [5]): very minor activity
